Assay results from US20050277190A1, “Pancreatic stem cells” (priority 2004, published 2005).
“Also recorded” adds a separate entry of the source. Ends that are not written are not given here.

Tests used:
Assay type in all cases: cell-based, mouse
PSC spheres = assay: PSC sphere colony formation assay and serum-free passaging with BIO; conditions: BIO included during primary serum-free sphere formation and serum-free passaging; period of 5 months
Source text: 1) Using the standard PSC sphere colony formation assay, the (commercially available) compound, BIO ((2_Z,3_E)-6-Bromoindirubin-3_-oxime) has been included. […] The GSK-3α/β protein kinases have a critical role within the Wnt-signalling pathway, with their inhibition by BIO leading to an activation of the Wnt pathway. The Wnt pathway is involved with the specification/development of multiple tissues. With BIO inclusion during the primary serum-free sphere formation and subsequent serum-free passaging, PSC spheres can be passaged indefinitely. PSC spheres have been successfully passaged, currently up to the 9th passage over a period of 5 months. The number of sphere-forming cells and resultant clonal spheres expanded (over 30-fold) during this period.
Isolated islets and ductal tissue were then incubated with trypsin (Sigma) at 37° C. and triturated with a small-borehole siliconized pipette into a single cell suspension. Viable cells were counted using Trypan Blue (Sigma) exclusion and plated at 20 cells μl^−1 or less in defined serum-free medium (SFM)^63 containing B27 (Gibco-BRL), 10 ng ml^−1 FGF2 (Sigma), 2 μg ml^−1 heparin (Sigma), and 20 ng ml^−1 EGF (Sigma) for 7-14 DIV. […] Each well was scored after plating for the presence of a single cell. […]

[1] = test system: differentiated PSC colonies; assay: Insulin release by differentiated PSC colonies (radioimmunoassay); conditions: 1.5 hour incubation; for insulin release in response to agent alone: 20 mM glucose (HG) or 100 μM carbachol alone, relative to LG-KRB; for insulin release in response to high glucose plus agent: 20 mM glucose with 30 nM GLP-1, 10 mM TEA or 100 μM verapamil
Method: PSC colonies were pooled and differentiated (8 per well, 96-well Matrigel-coated plates) for 7 days as described. Twenty-four hours prior to secretion studies, the medium was changed to supplemented RPMI-1640 medium as outlined above. Differentiated PSC colonies were pre-incubated in low glucose (2.5 mM) KRB solution (LG-KRB) for 1 hour. The solution was changed to 150 μl of fresh LG-KRB and the cultures were incubated for 1.5 hours to establish the basal level of insulin release. […] Insulin was measured using an RIA kit (Linco). Insulin release during the experimental 1.5 hour incubation was compared to the level determined during the basal 1.5 hour incubation period for each individual well to obtain a percent change. The data are expressed relative to the percent change measured for the LG-KRB to LG-KRB alone condition.

[2] = test system: YFP+ cells from islet- and ductal-derived PSC cultures; assay: [Ca2+]i imaging (Fura2) of RIP-YFP+ cells from differentiated PSC colonies; conditions: agent added on top of glucose; single YFP+ cells, islet- and ductal-derived PSC progeny

Molecule	effect of added agent on glucose-stimulated [Ca2+]i response [2]	insulin release in response to high glucose plus agent [1]	also measured
O=C1Nc2cc(Br)ccc2/C1=C1/Nc2ccccc2/C1=N\O [BIO, (2_Z,3_E)-6-Bromoindirubin-3_-oxime]	–	–	expansion of the number of sphere-forming cells and resultant clonal spheres (PSC spheres): over 30 fold
C[N+](C)(C)CCOC(N)=O [carbachol]	–	–	insulin release in response to agent alone [1]: insulin release in response to carbachol; also recorded: secrete insulin in response to carbachol; insulin release in response to agent alone ([1]; listed as Carbachol): increased insulin release
glucagon-like peptide-1 (HAEGTFTSDVSSYLEGQAAKEFIAWLVKGR; ends and bridges not checked; UniProt P01275 98-127, looked up) [GLP-1, physiological secretagogue known to stimulate β-cells in a glucose-dependent manner]	augmented	augmentation of this release; also recorded: increased insulin secretion; also recorded: increased insulin release	–
CC[N+](CC)(CC)CC [TEA, tetra ethyl ammonium]	augmented	augmentation of this release; also recorded: increased insulin secretion; also recorded: increased insulin release	–
COc1ccc(CCN(C)CCCC(C#N)(c2ccc(OC)c(OC)c2)C(C)C)cc1OC (centres unmarked) [verapamil]	–	abolishes glucose-stimulated insulin release to basal levels; also recorded: abolished the glucose-stimulated insulin release	–
